Measured values from paper PMC6927813 (Science (New York, N.Y.), 2019).
Where a chain is given by its changes, count along the chain named. Names and notes keep the numbering of the source.

Key:
[1] = biological target: T1, ParBP1 (Punavirus P1, UniProt Q38420); assay: membrane-spotting assay, radiolabelled nucleotide; format: binding; conditions: labelled compound
T1 sequence (Q38420 1-333): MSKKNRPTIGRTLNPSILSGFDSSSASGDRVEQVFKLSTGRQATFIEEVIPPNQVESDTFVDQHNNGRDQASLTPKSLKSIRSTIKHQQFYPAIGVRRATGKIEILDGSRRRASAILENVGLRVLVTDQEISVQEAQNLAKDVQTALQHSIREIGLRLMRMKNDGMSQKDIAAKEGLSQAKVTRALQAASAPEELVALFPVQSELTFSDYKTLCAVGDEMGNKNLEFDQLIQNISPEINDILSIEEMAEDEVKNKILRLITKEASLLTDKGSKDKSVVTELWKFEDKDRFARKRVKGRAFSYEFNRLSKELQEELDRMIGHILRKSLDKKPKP

[2] = biological target: T2, ParBBsu (full-length) (Bacillus subtilis, UniProt P26497); assay: isothermal titration calorimetry; format: binding
T2 sequence (P26497 1-282): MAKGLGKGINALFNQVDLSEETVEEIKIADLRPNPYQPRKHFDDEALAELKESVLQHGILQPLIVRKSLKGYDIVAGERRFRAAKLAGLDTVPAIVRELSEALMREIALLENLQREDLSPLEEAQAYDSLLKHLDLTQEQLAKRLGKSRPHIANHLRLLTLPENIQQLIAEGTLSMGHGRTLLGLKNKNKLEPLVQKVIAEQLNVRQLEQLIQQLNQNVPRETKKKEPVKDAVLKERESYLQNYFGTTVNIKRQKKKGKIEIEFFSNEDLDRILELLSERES

[3] = biological target: T3, ParBF (Escherichia coli, UniProt P62558); assay: membrane-spotting assay, radiolabelled nucleotide; format: binding; conditions: labelled compound
T3 sequence (P62558 1-323): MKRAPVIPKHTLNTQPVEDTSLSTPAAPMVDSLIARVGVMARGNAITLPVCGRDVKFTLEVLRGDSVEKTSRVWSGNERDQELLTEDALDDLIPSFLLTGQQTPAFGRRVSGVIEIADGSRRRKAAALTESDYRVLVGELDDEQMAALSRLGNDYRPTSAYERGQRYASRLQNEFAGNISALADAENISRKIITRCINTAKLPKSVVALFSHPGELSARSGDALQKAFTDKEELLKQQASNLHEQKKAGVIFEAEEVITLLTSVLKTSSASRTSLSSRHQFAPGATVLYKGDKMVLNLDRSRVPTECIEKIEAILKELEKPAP

[4] = biological target: the molecule itself; assay: crystal structure
[5] = biological target: the molecule itself; assay: cross-linking

Nc1ccn([C@@H]2O[C@H](COP(=O)(O)OP(=O)(O)OP(=O)(O)O)[C@@H](O)[C@H]2O)c(=O)n1 [CTP]
membrane-spotting assay, radiolabelled nucleotide [1]: plasmid-encoded ParB proteins (F plasmid ParBF and P1 prophage ParBP1)
Kd [2]: 10 to 50 µM
membrane-spotting assay, radiolabelled nucleotide [3]: CTP was also bound by plasmid-encoded ParB proteins (F plasmid ParBF

B1: ParBBsu(21-218) (domain or fragment)
chain: ETVEEIKIADLRPNPYQPRKHFDDEALAELKESVLQHGILQPLIVRKSLKGYDIVAGERRFRAAKLAGLDTVPAIVRELSEALMREIALLENLQREDLSPLEEAQAYDSLLKHLDLTQEQLAKRLGKSRPHIANHLRLLTLPENIQQLIAEGTLSMGHGRTLLGLKNKNKLEPLVQKVIAEQLNVRQLEQLIQQLNQN
binding result [4]: binds

B2: ParBBsu(T22C) (natural protein)
chain: T2 sequence (P26497 1-282) with T22C
binding result [5]: binds

B3: ParBBsu(T22C, S278C) (natural protein)
chain: T2 sequence (P26497 1-282) with T22C, S278C
stoichiometry N [5]: 2
